The pKb is −log10 of the Kb, conventionally taken in molar units. A higher pKb goes with a small Kb.

Results on 24 compounds are retold here after ChEMBL document CHEMBL5625223 (Eur J Med Chem, 2023).

In assay [1] the target is T1, 5-hydroxytryptamine receptor 2A (Homo sapiens, UniProt P28223). Description: Displacement of [3H]ketanserin from human 5-HT2A receptor expressed in HEK293 cells at 10 uM incubated for 1 hr relative to control. The format is cell-based.
Assay [2] has as its target T2, 5-hydroxytryptamine receptor 2C (Homo sapiens) (UniProt P28335).
T2 sequence (whole entry): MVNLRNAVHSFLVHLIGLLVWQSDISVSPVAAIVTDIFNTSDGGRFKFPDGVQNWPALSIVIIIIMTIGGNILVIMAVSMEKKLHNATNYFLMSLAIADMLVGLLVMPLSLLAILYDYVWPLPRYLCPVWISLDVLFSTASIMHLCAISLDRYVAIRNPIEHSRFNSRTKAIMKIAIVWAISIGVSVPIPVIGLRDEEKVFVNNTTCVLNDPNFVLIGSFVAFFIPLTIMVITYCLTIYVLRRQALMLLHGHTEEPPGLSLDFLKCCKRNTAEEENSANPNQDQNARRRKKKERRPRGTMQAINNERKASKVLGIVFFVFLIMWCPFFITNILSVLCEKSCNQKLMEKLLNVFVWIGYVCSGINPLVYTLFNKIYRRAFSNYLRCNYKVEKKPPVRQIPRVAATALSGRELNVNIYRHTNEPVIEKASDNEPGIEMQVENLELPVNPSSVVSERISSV
Description: Displacement of [3H]-Mesulergine from human 5-HT2C expressed in Flp-In-T-REx-293 cells at 10 uM incubated for 1 hr relative to control. The format is cell-based.

The target of a further assay is T3, Adenosine receptor A1 (Homo sapiens, UniProt P30542).
T3 sequence (P30542 whole entry): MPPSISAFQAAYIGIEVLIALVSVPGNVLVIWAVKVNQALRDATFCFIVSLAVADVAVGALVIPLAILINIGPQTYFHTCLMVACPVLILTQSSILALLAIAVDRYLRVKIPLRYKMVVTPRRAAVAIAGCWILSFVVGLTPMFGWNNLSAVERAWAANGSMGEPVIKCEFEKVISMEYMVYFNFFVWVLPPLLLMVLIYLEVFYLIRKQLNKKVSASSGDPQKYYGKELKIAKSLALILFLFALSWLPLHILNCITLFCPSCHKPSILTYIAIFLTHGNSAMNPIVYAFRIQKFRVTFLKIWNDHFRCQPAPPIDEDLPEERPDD
Description: Displacement of […] from human A1AR expressed in Flp-In-T-REx-293 cells assessed as inhibition constant. The format is cell-based.

Assay [3] has as its target Adenosine receptor A2a (Homo sapiens) (UniProt P29274). Description: Displacement of […] from human A2AR expressed in HEK cells at 10 uM relative to control. The format is cell-based.
For another assay, the target named is T4, Adenosine receptor A3 (Homo sapiens, UniProt P0DMS8).
T4 sequence (P0DMS8 whole entry): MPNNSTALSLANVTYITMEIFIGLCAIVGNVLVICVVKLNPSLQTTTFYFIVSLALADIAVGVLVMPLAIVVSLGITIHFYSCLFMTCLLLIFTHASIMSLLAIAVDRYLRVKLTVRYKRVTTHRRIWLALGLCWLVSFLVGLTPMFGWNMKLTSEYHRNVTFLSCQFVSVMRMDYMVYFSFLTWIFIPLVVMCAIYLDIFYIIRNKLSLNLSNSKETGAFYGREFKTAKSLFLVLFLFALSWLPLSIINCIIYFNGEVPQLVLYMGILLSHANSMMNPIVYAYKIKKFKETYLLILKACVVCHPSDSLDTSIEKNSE
Description: Displacement of […] from human A3AR expressed in HEK cells assessed as inhibition constant. The format is cell-based.

Assay [4] addresses T5, 5-hydroxytryptamine receptor 2B (Homo sapiens, UniProt P41595). Description: Displacement of [3H]-LSD from human 5-HT2B receptor expressed in HEK cells assessed as inhibition constant incubated for 1 hr. The format is cell-based. (In general: Displacement assays read how much labelled ligand stays bound in the presence of the test substance.)
Assay [5] concerns the target T6, 5-hydroxytryptamine receptor 2C (Homo sapiens, UniProt P28335).
T6 sequence (P28335 whole entry): T2 sequence (whole entry)
The experiment in a line: Displacement of [3H]-Mesulergine from human 5-HT2C expressed in Flp-In-T-REx-293 cells assessed as inhibition constant incubated for 1 hr. The format is cell-based.

For assay [6], the target named is T7, Adenosine receptor A3 (Homo sapiens) (UniProt P0DMS8).
T7 sequence (whole entry): T4 sequence (P0DMS8 whole entry)
Description: Displacement of […] from human A3AR expressed in HEK cells at 10 uM relative to control. The format is cell-based.

The target in assay [7] is T2, 5-hydroxytryptamine receptor 2C (Homo sapiens). Particulars: Flp-In-T-REx-293, filed as antagonist, time 1.0 hrs.
Assay [8] concerns the target T1, 5-hydroxytryptamine receptor 2A. The settings on record: Flp-In-T-REx-293, time 1.0 hrs.
For assay [9], the target named is T5, 5-hydroxytryptamine receptor 2B. The experiment in a line: Displacement of [3H]-LSD from human 5-HT2B receptor expressed in HEK cells at 10 uM incubated for 1 hr relative to control. The format is cell-based.
For assay [10], the target named is T1, 5-hydroxytryptamine receptor 2A. The experiment in a line: Binding affinity to 5HT2A receptor (unknown origin) at 10 uM relative to control.
Assay [11] deals with T5, 5-hydroxytryptamine receptor 2B. The experiment in a line: Binding affinity to 5HT2B receptor (unknown origin) assessed as inhibition constant.
Assay [12] deals with T6, 5-hydroxytryptamine receptor 2C. The experiment in a line: Binding affinity to 5HT2C receptor (unknown origin) assessed as inhibition constant.

The structures appear in SMILES notation.

Sequence of Adenosine receptor A2a (Homo sapiens) (P29274 whole entry): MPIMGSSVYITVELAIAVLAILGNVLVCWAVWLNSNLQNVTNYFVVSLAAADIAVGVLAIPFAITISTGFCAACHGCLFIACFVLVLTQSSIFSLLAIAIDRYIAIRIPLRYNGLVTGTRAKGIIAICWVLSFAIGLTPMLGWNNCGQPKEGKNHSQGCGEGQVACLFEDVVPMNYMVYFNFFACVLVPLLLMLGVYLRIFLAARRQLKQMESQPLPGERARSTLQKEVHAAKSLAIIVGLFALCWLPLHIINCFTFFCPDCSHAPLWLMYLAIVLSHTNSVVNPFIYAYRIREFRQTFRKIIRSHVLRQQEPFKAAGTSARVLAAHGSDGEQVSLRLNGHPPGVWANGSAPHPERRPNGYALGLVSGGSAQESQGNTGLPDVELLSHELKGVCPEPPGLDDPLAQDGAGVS
T5 sequence (P41595 whole entry): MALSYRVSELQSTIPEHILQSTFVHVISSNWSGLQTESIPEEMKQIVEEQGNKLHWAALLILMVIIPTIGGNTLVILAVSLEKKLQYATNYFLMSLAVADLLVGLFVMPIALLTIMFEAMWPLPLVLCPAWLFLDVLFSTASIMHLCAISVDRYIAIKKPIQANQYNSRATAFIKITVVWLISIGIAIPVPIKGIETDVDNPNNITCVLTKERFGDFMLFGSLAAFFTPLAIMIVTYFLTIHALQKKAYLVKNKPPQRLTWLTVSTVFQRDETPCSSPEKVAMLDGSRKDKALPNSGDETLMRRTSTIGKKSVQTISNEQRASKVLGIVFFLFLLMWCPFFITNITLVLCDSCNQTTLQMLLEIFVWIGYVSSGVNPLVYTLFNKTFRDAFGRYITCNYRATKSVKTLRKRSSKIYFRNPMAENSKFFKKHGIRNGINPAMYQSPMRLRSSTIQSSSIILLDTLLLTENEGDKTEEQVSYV
T1 sequence (P28223 whole entry): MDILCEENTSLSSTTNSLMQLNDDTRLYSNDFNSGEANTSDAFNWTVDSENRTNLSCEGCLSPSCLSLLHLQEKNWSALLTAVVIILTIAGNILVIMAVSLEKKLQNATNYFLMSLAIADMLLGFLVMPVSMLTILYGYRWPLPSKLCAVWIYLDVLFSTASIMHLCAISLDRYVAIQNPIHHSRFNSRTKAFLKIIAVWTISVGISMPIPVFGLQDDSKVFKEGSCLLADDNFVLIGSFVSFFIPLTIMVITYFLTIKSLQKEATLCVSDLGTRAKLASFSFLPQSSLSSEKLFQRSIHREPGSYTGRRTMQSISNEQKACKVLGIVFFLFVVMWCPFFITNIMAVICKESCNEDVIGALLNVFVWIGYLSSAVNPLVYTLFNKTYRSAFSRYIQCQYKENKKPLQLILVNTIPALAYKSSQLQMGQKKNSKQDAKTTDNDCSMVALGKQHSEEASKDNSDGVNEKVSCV

With `O[C@H]1[C@H](n2cnc3c(NC(C4CC4)C4CC4)nc(Cl)nc32)[C@H]2C[C@@]2(CF)[C@H]1O`, the Activity turned out to be 14% in assay [1], 47% in [2] (filed as antagonist) and 55% in [3] (filed as agonist). Further, the Ki stood at 5.95 nM on Adenosine receptor A1 and 3700 nM on Adenosine receptor A3.
As for `CSC[C@@]12C[C@@H]1[C@@H](n1cnc3c(NC(C4CC4)C4CC4)nc(I)nc31)[C@H](O)[C@@H]2O`, the values for the Activity in [1], in assay [3] (filed as agonist) and in assay [6] (filed as agonist) were 16%, 40% and 62%, respectively. The Ki in [4] was found to be 522 nM; in assay [5] (read-out: Ki), 493 nM; at Adenosine receptor A1, 466 nM.
Turning to `CC(C)[C@@H](Nc1nc(I)nc2c1ncn2[C@H]1[C@H](O)[C@H](O)[C@]2(CO)C[C@H]12)C1CC1`, the Activity in [1] turned out to be 7%; in assay [3] (filed as agonist) it was 60%. Also, the Ki in assay [4] is 81.9 nM; in assay [5] (read-out: Ki), 904 nM; at Adenosine receptor A1, 30.7 nM; on Adenosine receptor A3, 11700 nM.
On to `OC[C@@]12C[C@@H]1[C@@H](n1cnc3c(N[C@H](C4CCC4)C4CC4)nc(I)nc31)[C@H](O)[C@@H]2O`, for which the Activity in assay [1] worked out at 29%; in assay [3] (filed as agonist), 50%; in [6], 34%. In addition, the results for the Ki (in [5] (read-out: Ki); in assay [5] (read-out: pKi (converted)); at Adenosine receptor A1) were 670 nM, 603 nM and 42.7 nM, respectively. Further, the pKb is 6.54 in assay [7] and less than 5 in [8].
On to `Nc1nc(I)nc2c1ncn2[C@H]1[C@H](O)[C@H](O)[C@]2(CCl)C[C@H]12`, for which the Activity is 0% in [1], 11% in [9] and 12% in assay [2]. Also, the Ki was determined as 147 nM on Adenosine receptor A1 and 390 nM on Adenosine receptor A3.
As to `O[C@@H]1[C@H](O)[C@@H]2C[C@@H]2[C@H]1n1cnc2c(NC(C3CCCC3)C3CCCC3)nc(Cl)nc21`, the Activity was found to be 22% in assay [1] and 24% in [3].
As to `CSC[C@@]12C[C@@H]1[C@@H](n1cnc3c(N)nc(I)nc31)[C@H](O)[C@@H]2O`, the results for the Activity in assay [1], in assay [9] and in assay [2] were 0%, 12% and 12%, respectively. Besides, the Ki on Adenosine receptor A1 came to 1350 nM; at Adenosine receptor A3, 92.5 nM.
`COCCN(CCOC)C(=O)[C@]12C[C@H]1[C@H](n1cnc3c(NC(C4CC4)C4CC4)nc(Cl)nc31)[C@@H](O)[C@H]2O` (single isomer, unassigned): the Activity was found to be 0% in assay [1], 38% in assay [2], 34% in [3] and 30% in assay [6].
`Nc1nc(I)nc2c1ncn2[C@H]1[C@H](O)[C@H](O)[C@]2(CO)C[C@H]12`: the Activity is -27% in assay [1], -3% in assay [9] and -38% in assay [2].
With `CCOC(=O)[C@@]12C[C@@H]1[C@@H](n1cnc3c(NC(C4CCC4)C4CCC4)nc(Cl)nc31)[C@H](O)[C@@H]2O`, in assay [10], the Activity was determined as 35%. The Ki in assay [11] is 136 nM; in assay [12], 351 nM.
As for `OC[C@@]12C[C@@H]1[C@@H](n1cnc3c(NC(C4CCC4)C4CCC4)ncnc31)[C@H](O)[C@@H]2O`, the Activity in assay [10] is 18%. For the same compound, the Ki was determined as 186 nM in assay [11] and 1020 nM in assay [12].
For the compound `OC[C@@]12C[C@@H]1[C@@H](n1cnc3c(NC(C4CCCCC4)C4CCCCC4)nc(Cl)nc31)[C@H](O)[C@@H]2O`, the Activity in [1] (filed as antagonist) stood at 47%; in assay [3], 7%. On Adenosine receptor A3, the Ki amounted to 16600 nM.
`CCCCSC[C@@]12C[C@@H]1[C@@H](n1cnc3c(NC(C4CCCC4)C4CCCC4)nc(Cl)nc31)[C@H](O)[C@@H]2O`: the Activity was found to be 22% in assay [1], 27% in assay [2] and 8% in assay [3]. In addition, the Ki in [4] is 549 nM.
As for `NC[C@H]1O[C@@H](n2cnc3c(N[C@H](C4CCC4)C4CC4)nc(I)nc32)[C@H](O)[C@@H]1O`, the Activity in assay [1] is 9%; in [2], -1%; in assay [3], 39%; in assay [6] (filed as agonist), 56%. Further, the Ki in [4] was 178 nM; at Adenosine receptor A1, 147 nM.
Regarding `Ic1nc(N[C@H](C2CCC2)C2CC2)c2nc[nH]c2n1`, the results for the Activity in assay [1] and in [2] were -10% and 5%, respectively. The results for the Ki (in assay [4]; on Adenosine receptor A1) were 313 nM and 648 nM, respectively.
As to `COCCN(CCOC)C(=O)[C@]12C[C@H]1[C@H](n1cnc3c(N)nc(Cl)nc31)[C@@H](O)[C@H]2O` (single isomer, unassigned), the Activity is 3% in assay [1], 36% in [9], 12% in assay [2] and 51% in assay [6] (filed as agonist).
As for `OC[C@@]12C[C@@H]1[C@@H](n1cnc3c(NC(C4CCC4)C4CCC4)nc(Cl)nc31)[C@H](O)[C@@H]2O`, the Activity in [10] turned out to be 8%. The Ki in assay [12] amounted to 368 nM.
For `OC[C@@]12C[C@@H]1[C@@H](n1cnc3c(NC(C4CC4)C4CC4)nc(I)nc31)[C@H](O)[C@@H]2O`, the Activity came to 35% in assay [1] and 63% in assay [3] (filed as agonist). The Ki in [5] (read-out: Ki) was 249 nM; on Adenosine receptor A1, 13.4 nM; at Adenosine receptor A3 it was 7810 nM.
Turning to `O[C@H]1[C@H](n2cnc3c(NC(C4CCC4)C4CCC4)nc(Cl)nc32)[C@H]2C[C@@]2(CCl)[C@H]1O`, the Activity in [10] worked out at 28%. The Ki in assay [12] was 908 nM.
For the compound `O[C@H]1[C@H](n2cnc3c(NC(C4CCCCC4)C4CCCCC4)nc(Cl)nc32)[C@H]2C[C@@]2(CCl)[C@H]1O`, the Ki in assay [5] (read-out: Ki) amounted to 73.5 nM; on Adenosine receptor A3, 9320 nM. Further, in assay [3], the Activity is -9%.
Take `O[C@H]1[C@H](n2cnc3c(NC(C4CCC4)C4CCC4)ncnc32)[C@H]2C[C@@]2(CCl)[C@H]1O`: in [10], the Activity was determined as 11%. Moreover, the Ki stood at 1090 nM in assay [11] and 1230 nM in assay [12].
For the compound `CCOC(=O)[C@@]12C[C@@H]1[C@@H](n1cnc3c(NC(C4CCCC4)C4CCCC4)nc(Cl)nc31)[C@H](O)[C@@H]2O`, the values for the Activity in assay [1] (filed as antagonist) and in assay [3] were 42% and -22%, respectively. For the same compound, the Ki in assay [4] turned out to be 239 nM; in assay [5] (read-out: Ki) it was 139 nM; on Adenosine receptor A3, 9720 nM.
`OC[C@H]1O[C@@H](n2cnc3c(N[C@H](C4CCC4)C4CC4)nc(I)nc32)[C@H](O)[C@@H]1O`: the Activity is 6% in assay [1]; 44% in assay [9] (filed as antagonist); -1% in [2]; 72% in assay [3] (filed as agonist); 34% in assay [6]. The Ki at Adenosine receptor A1 amounted to 21.3 nM.
Take `CSC[C@@]12C[C@@H]1[C@@H](n1cnc3c(NC(C4CC4)C4CC4)nc(Cl)nc31)[C@H](O)[C@@H]2O`: the Activity in assay [1] is 19%. Further, the Ki in [5] (read-out: Ki) amounted to 772 nM; at Adenosine receptor A1, 63.2 nM; on Adenosine receptor A3, 932 nM.
